Tests used:
Type in all cases: in vivo
[1] = test system: buckthorn aphid (Aphis nasturtii); test: Buckthorn aphid (BA) foliar spray test; settings: nasturtium plants wet to runoff, 100 or 500 ppm; dead aphids counted after one day
Procedure: (§1) For the tick, aphids, souther armyworm, tobacco budworm, house fly, Mexican bean beetle, American cockroach, cat flea, souther corn rootworm, western corn rootworm, black cutworm, and southern root-knot nematode, a solution or suspension was prepared by adding the test compound to a solution of dimethylformamide, acetone, emulsifiers which are alkylaryl polyether alcohols organic sulfonates, and water. The result was a 100 or 500 ppm concentration of the test compound.
Buckthorn aphid (BA) or cotton aphid (CA): Adult and nymphal stages of buckthorn or cotton aphid were reared on potted dwarf nasturtium or cotton plants, respectively. Plants infested with 100-150 aphids were wet to runoff with the 100 or 500 ppm test compound formulation. As an untreated control, a water-acetone-DMF-emulsifier solution containing no test compound was also applied to runoff to infested plants. The treated plants were stored for one day for buckthorn aphid and three days for cotton aphid, after which the dead aphids were counted.

[2] = test system: tobacco budworm (Heliothis virescens); test: Tobacco budworm (TBW) treated cotton leaf test; settings: cotton leaves, 100 ppm; second instar larvae, five days
In short: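 Leaf-dip test: cotton leaves wetted to runoff with 100 ppm compound in DMF/acetone/emulsifier/water, dried, then offered to ten second-instar Heliothis virescens larvae in closed cups with moist wicks. Mortality scored after five days; larvae unable to move one body length on prodding counted dead; solvent-emulsifier control run alongside.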

[3] = test system: Mexican bean beetle (Epilachna varivestis); test: Mexican bean beetle (MBB) treated bean leaf test; settings: bean leaves, 100 or 500 ppm; second instar larvae, five days
Procedure: as §1
Southern armyworm (SAW), Mexican bean beetle (MBB): Bean leaves were wet to runoff with the 100 or 500 ppm test compound formulation. As an untreated control, a water-acetone-DMF-emulsifier solution containing no test compound was also applied wet to runoff to bean leaves. Five or six randomly selected second instar southern armyworn larvae or Mexican bean bettle larvae were introduced into each plastic container with the dry treated leaves. The container was closed and held for five days. Larvae which were unable to move the length of the body, even upon stimulation by prodding, were considered dead.

[4] = test system: American cockroach (Periplaneta americana); test: American cockroach (ACR) treated food pellet test; settings: food pellets with 500 ppm formulation; nymphs, contact and feeding mortality 1 and 5 days after infestation
In short: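 Pet-food pellets treated with 500 ppm compound in DMF/acetone/emulsifier/water; solvent-only blank as control. Nymphs added after 48 h; contact and feeding mortality scored 1 and 5 days post-infestation.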

[5] = test system: dog tick (Rhipicephalus sanguineus); test: Dog tick (DT) treated filter paper contact test; settings: 500 ppm, adult ticks, contact mortality 14 days after infestation
Procedure: as §1
(§2) Cat flea (CF), dog tick (DT): Filter papers were treated with an aliquot of the 500 ppm test formulation. As an untreated control, an aliquot of a water-acetone-DMF-emulsifier solution containing no test compound was applied in a similar manner. When dry, 2 treated filters were placed in a vial for the flea and another 2 filters in a vial for the tick. Five adult fleas were added to one vial and 5 adult ticks to the second vial. Contact mortality was assessed 1 day after infestation for the flea and 14 days after infestation for the tick.

[6] = test system: cat flea (Ctenocephalides felis); test: Cat flea (CF) treated filter paper contact test; settings: 500 ppm, adult fleas, contact mortality 1 day after infestation
Procedure: as §1, §2

[7] = test system: western corn rootworm (Diabrotica virgifera virgifera); test: Western corn rootworm (WCRW) soil test; settings: soil concentration 0.15 or 0.5 ppm; neonate larvae, mortality six days after infestation
In short: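 Test formulation applied to dry sandy loam soil in a jar for 0.15 or 0.5 ppm soil concentration; solvent-only untreated control. After 24 h covered incubation, four germinated corn seedlings and ten neonate larvae added. Mortality assessed 6 days after infestation by Berlese funnel extraction.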

Compound | BA [1] | TBW [2] | MBB [3] | ACR [4] | DT [5] | CF [6] | WCRW [7]
CC(=O)c1c(S(=O)(=O)C(F)(F)F)c(C#N)nn1-c1c(Cl)cc(C(F)(F)F)cc1Cl [Compound 1, 5-Acetyl-3-cyano-1-(2,6-dichloro-4-trifluoromethylphenyl)-4-trifluoromethylsulfonylpyrazole] | + (active against 1 or more insects described above up to 100% mortality. This activity is indicated by a “+”) | + (active against 1 or more insects described above up to 100% mortality. This activity is indicated by a “+”) | + (active against 1 or more insects described above up to 100% mortality. This activity is indicated by a “+”) | – | – | – | –
CCOC(OCC)c1c(SC(F)(F)F)c(C#N)nn1-c1c(Cl)cc(C(F)(F)F)cc1Cl [Compound 18, 3-Cyano-1-(2,6-dichloro-4-trifluoromethylphenyl)-5-diethoxymethyl-4-trifluoromethylthiopyrazole] | – | – | – | + (active against 1 or more insects described above up to 100% mortality. This activity is indicated by a “+”) | + (active against 1 or more insects described above up to 100% mortality. This activity is indicated by a “+”) | + (active against 1 or more insects described above up to 100% mortality. This activity is indicated by a “+”) | + (active against 1 or more insects described above up to 100% mortality. This activity is indicated by a “+”)
